# Assay: Solubility in ethanol/propylene glycol/water (85:10:5)
# Assay type: physicochemical
# Settings: R1 in meta position (compound of the invention); ethanol/propylene glycol/water (85:10:5) by volume
# Method: The solubilities are measured in ethanol/propylene glycol/water (85:10:5) (proportions are by volume).
row,Compound,Meta Position Solubiity [mg/mL]
1,"Cc1nnnn1N=Cc1ccc(O)c(C(c2cccc([N+](=O)[O-])c2)c2cc(C=Nn3nnnc3C)ccc2O)c1 (stereo not drawn) [Example 27, 2,2′-[(3-Nitrophenyl)methylene]bis[4-[[(5-methyl-1H-tetrazol-1-yl)imino]methyl]]phenol]",0.98
2,"CCN(CC)c1cccc(C(c2cc(C=Nn3nnnc3C)ccc2O)c2cc(C=Nn3nnnc3C)ccc2O)c1 (stereo not drawn) [Example 20, 2,2′-[[(3-Diethylamino)phenyl]methylene]bis[4-[[(5-methyl-1H-tetrazol-1-yl)imino]methyl]]phenol]",1.45
3,"CCOc1cccc(C(c2cc(C=Nn3nnnc3C)ccc2O)c2cc(C=Nn3nnnc3C)ccc2O)c1 (stereo not drawn) [Example 6, 2,2′-[(3-Ethoxyphenyl)methylene]bis[4-[[(5-methyl-1H-tetrazol-1-yl)imino]methyl]]phenol]",1.85
4,"Cc1nnnn1N=Cc1ccc(O)c(C(c2cccc(N(C)C)c2)c2cc(C=Nn3nnnc3C)ccc2O)c1 (stereo not drawn) [Example 2, 2,2′-[[(3-Dimethylamino)phenyl]methylene]bis[4-[[(5-methyl-1H-tetrazol-1-yl)imino]methyl]]phenol]",2.10
5,"3-[[Bis[[5-(5-methyl-1H-tetrazol-1-yl)imino]methyl]-2-hydroxyphenyl]methylene] -N,N-dimethylbenzenesulfonamide [Example 31]",0.08
6,"CCCc1cccc(C(c2cc(C=Nn3nnnc3C)ccc2O)c2cc(C=Nn3nnnc3C)ccc2O)c1 (stereo not drawn) [Example 1, 2,2′-[(3-Propylphenyl)methylene]bis[4-[[(5-methyl-1H-tetrazol-1-yl)imino]methyl]]phenol]",1.9
